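Grown in 96-well plates, cells were treated for 48 hours with each compound at five concentrations. Insufficient inhibition: endpoint recorded as highest concentration tested. The concentration for 50% growth inhibition is given as GI50. TGI: concentration producing complete growth inhibition.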
Legend:
Assay in all cases: growth of human tumour cells (NCI), 48 h
[1] = test system: SNB-75 CNS
[2] = test system: ACHN renal
[3] = test system: NCI-H522 lung
[4] = test system: COLO 205 colon
[5] = test system: CCRF-CEM leukemia
[6] = test system: PC-3 prostate
[7] = test system: UO-31 renal
[8] = test system: SW-620 colon
[9] = test system: LOX IMVI melanoma
[10] = test system: OVCAR-3 ovarian
[11] = test system: NCI-H226 lung
[12] = test system: KM12 colon
[13] = test system: SN12C renal
[14] = test system: MDA-MB-231 breast
[15] = test system: MCF7 breast
[16] = test system: SNB-19 CNS
[17] = test system: T-47D breast
[18] = test system: MOLT-4 leukemia
[19] = test system: SF-539 CNS
[20] = test system: HT29 colon
[21] = test system: RPMI-8226 leukemia
[22] = test system: UACC-62 melanoma
[23] = test system: M14 melanoma
[24] = test system: SF-268 CNS
[25] = test system: SK-MEL-5 melanoma
[26] = test system: HCT-15 colon
[27] = test system: RXF 393 renal
[28] = test system: SK-OV-3 ovarian
[29] = test system: HCC-2998 colon
[30] = test system: SF-295 CNS
[31] = test system: EKVX NSCLC
[32] = test system: OVCAR-4 ovarian
[33] = test system: U251 CNS
[34] = test system: OVCAR-8 ovarian
[35] = test system: HCT-116 colon
[36] = test system: CAKI-1 renal
[37] = test system: HOP-92 NSCLC
[38] = test system: A549 NSCLC
[39] = test system: HOP-62 NSCLC
[40] = test system: SK-MEL-2 melanoma
[41] = test system: NCI-H460 lung
[42] = test system: SR leukemia
[43] = test system: BT-549 breast
[44] = test system: A498 renal
[45] = test system: 786-0 renal
[46] = test system: OVCAR-5 ovarian
[47] = test system: IGROV1 ovarian
[48] = test system: NCI-H23 lung
[49] = test system: K-562 leukemia
[50] = test system: NCI/ADR-RES ovarian
[51] = test system: MALME-3M melanoma
[52] = test system: HL-60(TB) leukemia
[53] = test system: DU-145 prostate
[54] = test system: TK-10 renal
[55] = test system: SK-MEL-28 melanoma
[56] = test system: MDA-MB-435
[57] = test system: UACC-257 melanoma
[58] = test system: HS 578T breast

Structure (SMILES): NC(=O)c1ncn(CC2(CO)CCC2)n1
- GI50 [1]: 21.6 µM

Structure (SMILES): CC(=O)O[C@H](C[C@H](C(C)C)N(C)C(=O)[C@@H](NC(=O)[C@H]1CCCCN1C)C(C)C)c1cccc(C(=O)N[C@@H](Cc2ccccc2)C[C@H](C)C(=O)O)n1
- GI50 [2]: 0.0955 µM
- TGI [2]: > 25 µM
- GI50 [3]: 0.0116 µM
- TGI [3]: 0.401 µM
- GI50 [4]: 0.0279 µM
- TGI [4]: 0.329 µM
- GI50 [5]: 0.0175 µM
- TGI [5]: > 25 µM
- GI50 [6]: 0.0321 µM
- TGI [6]: > 25 µM
- GI50 [7]: 0.33 µM
- TGI [7]: > 25 µM
- GI50 [8]: < 0.0222 µM
- TGI [8]: > 25 µM
- GI50 [9]: 0.0255 µM
- TGI [9]: > 25 µM
- GI50 [10]: 0.00707 µM
- GI50 [11]: 0.067 µM
- TGI [11]: 5.36 µM
- GI50 [12]: 0.0262 µM
- TGI [12]: > 25 µM
- GI50 [13]: 0.044 µM
- TGI [13]: > 25 µM
- GI50 [14]: 0.0332 µM
- TGI [14]: 10.1 µM
- GI50 [15]: 0.00992 µM
- TGI [15]: > 25 µM
- GI50 [16]: 0.0343 µM
- TGI [16]: > 25 µM
- GI50 [17]: 0.0818 µM
- TGI [17]: > 25 µM
- GI50 [18]: 0.0219 µM
- TGI [18]: > 25 µM
- GI50 [19]: 0.0193 µM
- TGI [19]: 0.0626 µM
- GI50 [20]: 0.0242 µM
- TGI [20]: > 8.21 µM
- GI50 [21]: 0.0213 µM
- TGI [21]: > 25 µM
- GI50 [22]: 0.0276 µM
- TGI [22]: > 25 µM
- GI50 [23]: 0.0237 µM
- GI50 [24]: 0.05 µM
- TGI [24]: > 25 µM
- GI50 [25]: 0.0155 µM
- TGI [25]: 0.36 µM
- GI50 [26]: 0.219 µM
- TGI [26]: > 25 µM
- GI50 [27]: 0.0225 µM
- TGI [27]: > 25 µM
- GI50 [28]: 0.0312 µM
- TGI [28]: > 25 µM
- GI50 [29]: 0.0544 µM
- TGI [29]: > 25 µM
- GI50 [30]: 0.0333 µM
- TGI [30]: > 5.29 µM
- GI50 [31]: 0.255 µM
- TGI [31]: > 25 µM
- GI50 [32]: 0.107 µM
- TGI [32]: > 25 µM
- GI50 [33]: 0.0353 µM
- TGI [33]: > 25 µM
- GI50 [34]: 0.0475 µM
- TGI [34]: > 25 µM
- GI50 [35]: 0.0222 µM
- TGI [35]: > 8.59 µM
- GI50 [36]: 0.0686 µM
- TGI [36]: > 25 µM
- GI50 [37]: 0.0183 µM
- TGI [37]: > 25 µM
- GI50 [38]: 0.0666 µM
- TGI [38]: > 25 µM
- GI50 [39]: 0.0648 µM
- TGI [39]: > 25 µM
- GI50 [40]: 0.0159 µM
- TGI [40]: > 25 µM
- GI50 [41]: 0.0297 µM
- TGI [41]: > 13.4 µM
- GI50 [42]: 0.00429 µM
- TGI [42]: > 25 µM
- GI50 [43]: 0.0154 µM
- TGI [43]: 0.48 µM
- GI50 [44]: 0.0158 µM
- TGI [44]: 0.0737 µM
- GI50 [45]: 0.0463 µM
- TGI [45]: > 25 µM
- GI50 [46]: 0.248 µM
- TGI [46]: > 25 µM
- GI50 [47]: 0.0287 µM
- TGI [47]: > 25 µM
- GI50 [48]: 0.051 µM
- TGI [48]: > 25 µM
- GI50 [49]: 0.0103 µM
- TGI [49]: > 25 µM
- GI50 [50]: 2.06 µM
- TGI [50]: > 10.6 µM
- GI50 [1]: 0.00695 µM
- TGI [1]: > 25 µM
- GI50 [51]: 0.0164 µM
- TGI [51]: > 25 µM
- GI50 [52]: 0.0069 µM
- TGI [52]: 0.0321 µM
- GI50 [53]: 0.0263 µM
- TGI [53]: 1.49 µM

Structure (SMILES): C=C(C)[C@@H]1CC[C@]2(C(=O)OCCCC[P+](c3ccccc3)(c3ccccc3)c3ccccc3)CC[C@]3(C)[C@H](CC[C@@H]4[C@@]5(C)CC[C@H](OC(=O)C(Cl)Cl)C(C)(C)[C@@H]5CC[C@]43C)[C@@H]12
- GI50 [13]: 0.27 µM
- TGI [13]: 1.58 µM

Structure (SMILES): COc1ccc(-c2nsc3c2NC(=O)CC3c2cccc(Cl)c2)cc1 (stereo unspecified)
- GI50 [2]: 7.5 µM
- TGI [2]: > 100 µM
- GI50 [3]: 0.766 µM
- TGI [3]: 5.99 µM
- GI50 [54]: 3.48 µM
- TGI [54]: > 100 µM
- GI50 [4]: 0.771 µM
- TGI [4]: > 42.4 µM
- GI50 [5]: 2.44 µM
- TGI [5]: > 100 µM
- GI50 [55]: 4.54 µM
- TGI [55]: > 100 µM
- GI50 [6]: 2.12 µM
- TGI [6]: > 100 µM
- GI50 [7]: 5.22 µM
- TGI [7]: > 100 µM
- GI50 [8]: 0.497 µM
- TGI [8]: > 100 µM
- GI50 [9]: 5.57 µM
- TGI [9]: > 100 µM
- GI50 [10]: 1.74 µM
- TGI [10]: > 29 µM
- GI50 [11]: 10.8 µM
- TGI [11]: > 100 µM
- GI50 [12]: 0.743 µM
- TGI [12]: > 100 µM
- GI50 [13]: > 22.8 µM
- TGI [13]: > 100 µM
- GI50 [56]: 0.226 µM
- TGI [56]: 0.917 µM
- GI50 [14]: 2.37 µM
- TGI [14]: > 100 µM
- GI50 [57]: 10.8 µM
- TGI [57]: > 100 µM
- GI50 [15]: 0.809 µM
- TGI [15]: > 100 µM
- GI50 [16]: 5.44 µM
- TGI [16]: > 100 µM
- GI50 [17]: 3.54 µM
- TGI [17]: > 100 µM
- GI50 [18]: 4.11 µM
- TGI [18]: > 100 µM
- GI50 [19]: 1.75 µM
- TGI [19]: 6.06 µM
- GI50 [20]: 0.377 µM
- TGI [20]: 4.91 µM
- GI50 [58]: 2.98 µM
- TGI [58]: > 65.4 µM
- GI50 [21]: 3.6 µM
- TGI [21]: > 100 µM
- GI50 [22]: 2.31 µM
- TGI [22]: > 100 µM
- GI50 [23]: 1.46 µM
- TGI [23]: > 100 µM
- GI50 [24]: 8.04 µM
- TGI [24]: > 100 µM
- GI50 [25]: 1.38 µM
- TGI [25]: 51.6 µM
- GI50 [26]: 0.646 µM
- TGI [26]: > 100 µM
- GI50 [27]: 2.57 µM
- TGI [27]: 33 µM
- GI50 [28]: 3.31 µM
- TGI [28]: > 100 µM
- GI50 [29]: 11.5 µM
- TGI [29]: > 100 µM
- GI50 [30]: 1.99 µM
- TGI [30]: 13.5 µM
- GI50 [32]: 7.62 µM
- TGI [32]: > 100 µM
- GI50 [33]: 2.33 µM
- TGI [33]: > 100 µM
- GI50 [34]: 4.35 µM
- TGI [34]: > 100 µM
- GI50 [35]: 0.83 µM
- TGI [35]: > 100 µM
- GI50 [36]: 0.981 µM
- TGI [36]: 70.1 µM
- GI50 [37]: 1.09 µM
- TGI [37]: 33.6 µM
- GI50 [38]: 0.987 µM
- TGI [38]: > 100 µM
- GI50 [39]: 4.04 µM
- TGI [39]: 98.1 µM
- GI50 [40]: 0.878 µM
- TGI [40]: 9.93 µM
- GI50 [41]: 1.22 µM
- TGI [41]: > 100 µM
- GI50 [42]: 0.519 µM
- TGI [42]: > 100 µM
- GI50 [43]: 7.51 µM
- TGI [43]: > 100 µM
- GI50 [44]: 1.34 µM
- TGI [44]: 8.1 µM
- GI50 [45]: 9.39 µM
- TGI [45]: > 100 µM
- GI50 [46]: 5.3 µM
- TGI [46]: > 100 µM
- GI50 [47]: 3.33 µM
- TGI [47]: > 100 µM
- GI50 [48]: 4.62 µM
- TGI [48]: > 100 µM
- GI50 [49]: 0.399 µM
- TGI [49]: > 100 µM
- GI50 [50]: 0.604 µM
- TGI [50]: > 100 µM
- GI50 [1]: 1.53 µM
- TGI [1]: 7.46 µM
- GI50 [51]: 6.59 µM
- TGI [51]: > 100 µM
- GI50 [52]: 2.28 µM
- TGI [52]: > 27.6 µM
- GI50 [53]: 3.3 µM
- TGI [53]: > 100 µM

— PubChem BioAssay (NCI)
